Assay results published in US20130172424A1, “METHODS AND COMPOSITIONS FOR TREATING DIABETES” (GOLDEN BIOTECHNOLOGY CORPORATION, priority 2011, published 2013).
Values joined by “and” are separate entries in the source; they are usually repeats but may differ in a detail not shown here. Equal values may be shown once.

Test system: diabetes induced by STZ in SD rats
Test: Treatment of diabetes induced by STZ in rats
Assay type: in vivo, Sprague-Dawley rat
Settings: Group B (AopE+STZ+Compound 1), individual rats ID 1-4, before meals
Procedure: The effects of exemplary cyclohexnone compound 1 in treating a subject suffering from diabetes were investigated in a Sprague-Dawley rat model over a four week period. The example describes the results of such experiments.
In vivo models. A rat model of diabetes was established by low-dose streptozotocin (STZ, 60 mg/kg) injection in SD rats. Rats of the same batch fed with normal chow (NRC) were used as a control (n=4).
Study group. Group A: diabetes without treatment group, n=6; Group B: AopE+STZ+Compound 1, n=4. […] Rats of Group B (treatment group) have the following blood sugar data before meals: […]

For `COC1=C(OC)C(O)C(C/C=C(\C)CC/C=C(\C)CCC=C(C)C)C(C)C1=O` (centres unmarked) [Compound 1, 4-hydroxy-2,3-dimethoxy-6-methyl-5-(3,7,11-trimethyldodeca-2,6,10-trienyl)cyclohex-2-enone], the “2nd week blood sugar level” value (2nd week) was 421 mg/dL and 330 mg/dL and 261 mg/dL and 484 mg/dL and the “4th week Blood sugar level” value (4th week, untreated diabetic rats about 400-500 mg/dl, control about 100 mg/dl) was 147 mg/dL and 149 mg/dL and 89 mg/dL and 388 mg/dL.
